Test results from ChEMBL document CHEMBL4138123, “Design, synthesis and biological evaluation of novel pyrazolochalcones as potential modulators of PI3K/Akt/mTOR pathway and inducers of apoptosis in breast cancer cells” (Eur J Med Chem, 2017).

Experiments:
A549 = assay: Cytotoxicity against human A549/ATCC cells assessed as growth inhibition after 48 hrs by sulforhodamine B assay; assay type: functional; conditions: A549, 48 h
NCI-H522 = assay: Cytotoxicity against human NCI-H522 cells assessed as growth inhibition after 48 hrs by sulforhodamine B assay; assay type: functional; conditions: NCI-H522, 48 h
COLO 205 [1] = assay: Cytotoxicity against human COLO205 cells assessed as growth inhibition after 48 hrs by sulforhodamine B assay; assay type: functional; conditions: COLO 205, 48 h
UACC-257 = assay: Cytotoxicity against human UACC257 cells assessed as growth inhibition after 48 hrs by sulforhodamine B assay; assay type: functional; conditions: UACC-257, 48 h
SK-OV-3 [2] = assay: Cytotoxicity against human SKOV3 cells assessed as growth inhibition after 48 hrs by sulforhodamine B assay; assay type: functional; conditions: SK-OV-3, 48 h
MCF7 [3] = assay: Cytotoxicity against human MCF7 cells assessed as growth inhibition after 48 hrs by MTT assay; assay type: functional, cell-based; conditions: MCF7, 48 h
Malme-3M [4] = assay: Cytotoxicity against human MALME-3M cells assessed as cell growth at 0.01 uM after 48 hrs by sulforhodamine B assay relative to control; assay type: functional; conditions: read-out: Activity
U-251 = assay: Cytotoxicity against human U251 cells assessed as cell growth at 0.01 uM after 48 hrs by sulforhodamine B assay relative to control; assay type: functional; conditions: U-251, 48 h, read-out: Activity
SNB-75 = assay: Cytotoxicity against human SNB75 cells assessed as cell growth at 0.01 uM after 48 hrs by sulforhodamine B assay relative to control; assay type: functional; conditions: SNB-75, 48 h, read-out: Activity
KM12 [5] = assay: Cytotoxicity against human KM12 cells assessed as cell growth at 0.01 uM after 48 hrs by sulforhodamine B assay relative to control; assay type: functional; conditions: KM12, 48 h, read-out: Activity
HCT-116 [6] = assay: Cytotoxicity against human HCT116 cells assessed as cell growth at 0.1 uM after 48 hrs by sulforhodamine B assay relative to control; assay type: functional; conditions: HCT-116, 48 h, read-out: Activity
NCI/ADR-RES [7] = assay: Cytotoxicity against human NCI/ADR-RES cells assessed as cell growth at 0.1 uM after 48 hrs by sulforhodamine B assay relative to control; assay type: functional; conditions: read-out: Activity
RXF 393 [8] = assay: Cytotoxicity against human RXF393 cells assessed as cell growth at 0.1 uM after 48 hrs by sulforhodamine B assay relative to control; assay type: functional; conditions: RXF 393, 48 h, read-out: Activity
MDA-MB-468 [9] = assay: Cytotoxicity against human MDA-MB-468 cells assessed as cell growth at 0.1 uM after 48 hrs by sulforhodamine B assay relative to control; assay type: functional; conditions: MDA-MB-468, 48 h, read-out: Activity
K562 = assay: Cytotoxicity against human K562 cells assessed as cell growth at 1 uM after 48 hrs by sulforhodamine B assay relative to control; assay type: functional; conditions: K562, 48 h, read-out: Activity
HCT-116 [10] = assay: Cytotoxicity against human HCT116 cells assessed as cell growth at 1 uM after 48 hrs by sulforhodamine B assay relative to control; assay type: functional; conditions: HCT-116, 48 h, read-out: Activity
KM12 [11] = assay: Cytotoxicity against human KM12 cells assessed as cell growth at 1 uM after 48 hrs by sulforhodamine B assay relative to control; assay type: functional; conditions: KM12, 48 h, read-out: Activity
SNB-19 [12] = assay: Cytotoxicity against human SNB19 cells assessed as cell growth at 1 uM after 48 hrs by sulforhodamine B assay relative to control; assay type: functional; conditions: SNB-19, 48 h, read-out: Activity
SK-OV-3 [13] = assay: Cytotoxicity against human SKOV3 cells assessed as cell growth at 1 uM after 48 hrs by sulforhodamine B assay relative to control; assay type: functional; conditions: SK-OV-3, 48 h, read-out: Activity
BT-549 = assay: Cytotoxicity against human BT549 cells assessed as cell growth at 1 uM after 48 hrs by sulforhodamine B assay relative to control; assay type: functional; conditions: BT-549, 48 h, read-out: Activity
COLO 205 [14] = assay: Cytotoxicity against human COLO205 cells assessed as cell growth at 10 uM after 48 hrs by sulforhodamine B assay relative to control; assay type: functional; conditions: COLO 205, 48 h, read-out: Activity
MDA-MB-435 = assay: Cytotoxicity against human MDA-MB-435 cells assessed as cell growth at 10 uM after 48 hrs by sulforhodamine B assay relative to control; assay type: functional; conditions: MDA-MB-435, 48 h, read-out: Activity
SN12C = assay: Cytotoxicity against human SN12C cells assessed as cell growth at 10 uM after 48 hrs by sulforhodamine B assay relative to control; assay type: functional; conditions: read-out: Activity
UO-31 = assay: Cytotoxicity against human UO31 cells assessed as cell growth at 10 uM after 48 hrs by sulforhodamine B assay relative to control; assay type: functional; conditions: UO-31, 48 h, read-out: Activity
DU-145 = assay: Cytotoxicity against human DU145 cells assessed as cell growth at 10 uM after 48 hrs by sulforhodamine B assay relative to control; assay type: functional; conditions: DU-145, 48 h, read-out: Activity
MCF7 [15] = assay: Cytotoxicity against human MCF7 cells assessed as cell growth at 10 uM after 48 hrs by sulforhodamine B assay relative to control; assay type: functional; conditions: MCF7, 48 h, read-out: Activity
T47D = assay: Cytotoxicity against human T47D cells assessed as cell growth at 10 uM after 48 hrs by sulforhodamine B assay relative to control; assay type: functional; conditions: read-out: Activity
MDA-MB-468 [16] = assay: Cytotoxicity against human MDA-MB-468 cells assessed as cell growth at 10 uM after 48 hrs by sulforhodamine B assay relative to control; assay type: functional; conditions: MDA-MB-468, 48 h, read-out: Activity
RPMI-8226 = assay: Cytotoxicity against human RPMI8226 cells assessed as cell growth at 100 uM after 48 hrs by sulforhodamine B assay relative to control; assay type: functional; conditions: RPMI-8226, 48 h, read-out: Activity
SR = assay: Cytotoxicity against human SR cells assessed as cell growth at 100 uM after 48 hrs by sulforhodamine B assay relative to control; assay type: functional; conditions: read-out: Activity
NCI-H460 = assay: Cytotoxicity against human NCI-H460 cells assessed as cell growth at 100 uM after 48 hrs by sulforhodamine B assay relative to control; assay type: functional; conditions: NCI-H460, 48 h, read-out: Activity
KM12 [17] = assay: Cytotoxicity against human KM12 cells assessed as cell growth at 100 uM after 48 hrs by sulforhodamine B assay relative to control; assay type: functional; conditions: KM12, 48 h, read-out: Activity
SNB-19 [18] = assay: Cytotoxicity against human SNB19 cells assessed as cell growth at 100 uM after 48 hrs by sulforhodamine B assay relative to control; assay type: functional; conditions: SNB-19, 48 h, read-out: Activity
Malme-3M [19] = assay: Cytotoxicity against human MALME-3M cells assessed as cell growth at 100 uM after 48 hrs by sulforhodamine B assay relative to control; assay type: functional; conditions: read-out: Activity
NCI/ADR-RES [20] = assay: Cytotoxicity against human NCI/ADR-RES cells assessed as cell growth at 100 uM after 48 hrs by sulforhodamine B assay relative to control; assay type: functional; conditions: read-out: Activity
RXF 393 [21] = assay: Cytotoxicity against human RXF393 cells assessed as cell growth at 100 uM after 48 hrs by sulforhodamine B assay relative to control; assay type: functional; conditions: RXF 393, 48 h, read-out: Activity

## COc1ccc(-c2cc(/C=C/C(=O)c3ccc(N)cc3)[nH]n2)cc1
A549
  GI50: 2.55 µM
  LC50 (concentration giving 50% net cell kill): 46.9 µM
  TGI: 10.2 µM
NCI-H522
  GI50: 1.21 µM
  LC50: 7.03 µM
  TGI: 2.91 µM
COLO 205 [1]
  GI50: 1.85 µM
  LC50: 6.41 µM
  TGI: 3.45 µM
UACC-257
  GI50: 1.9 µM
  LC50: 9.36 µM
  TGI: 4.21 µM
SK-OV-3 [2]
  GI50: 4.72 µM
  LC50: 63.6 µM
  TGI: 18 µM
MCF7 [3]
  IC50: 0.8 µM
Malme-3M [4]
  growth at 0.01 µM: 93%
U-251
  growth at 0.01 µM: 97%
SNB-75
  growth at 0.01 µM: 85%
KM12 [5]
  growth at 0.01 µM: 96%
HCT-116 [6]
  growth at 0.1 µM: 105%
NCI/ADR-RES [7]
  growth at 0.1 µM: 99%
RXF 393 [8]
  growth at 0.1 µM: 88%
MDA-MB-468 [9]
  growth at 0.1 µM: 86%
K562
  growth at 1 µM: 58%
HCT-116 [10]
  growth at 1 µM: 67%
KM12 [11]
  growth at 1 µM: 77%
SNB-19 [12]
  growth at 1 µM: 75%
SK-OV-3 [13]
  growth at 1 µM: 105%
BT-549
  growth at 1 µM: 77%
COLO 205 [14]
  growth at 10 µM: -86%
MDA-MB-435
  growth at 10 µM: -16%
SN12C
  growth at 10 µM: -16%
UO-31
  growth at 10 µM: -88%
DU-145
  growth at 10 µM: -55%
MCF7 [15]
  growth at 10 µM: -30%
T47D
  growth at 10 µM: -1%
MDA-MB-468 [16]
  growth at 10 µM: -62%
RPMI-8226
  growth at 100 µM: -67%
SR
  growth at 100 µM: -61%
NCI-H460
  growth at 100 µM: -70%
KM12 [17]
  growth at 100 µM: -78%
SNB-19 [18]
  growth at 100 µM: -80%
Malme-3M [19]
  growth at 100 µM: -82%
NCI/ADR-RES [20]
  growth at 100 µM: -38%
RXF 393 [21]
  growth at 100 µM: -63%

## COc1cc(C(=O)/C=C/c2cc(-c3ccc4c(c3)OCO4)n[nH]2)cc(OC)c1OC
A549
  GI50: 2.13 µM
  LC50 (concentration giving 50% net cell kill): 30.1 µM
  TGI: 6.23 µM
NCI-H522
  GI50: 1.59 µM
  LC50: 7.3 µM
  TGI: 3.41 µM
COLO 205 [1]
  GI50: 2.08 µM
  LC50: 12.6 µM
  TGI: 4.66 µM
UACC-257
  GI50: 2.95 µM
  LC50: 32 µM
  TGI: 9.46 µM
SK-OV-3 [2]
  GI50: 4.44 µM
  LC50: 38.8 µM
  TGI: 14.6 µM
MCF7 [3]
  IC50: 0.85 µM
Malme-3M [4]
  growth at 0.01 µM: 94%
U-251
  growth at 0.01 µM: 98%
SNB-75
  growth at 0.01 µM: 85%
KM12 [5]
  growth at 0.01 µM: 97%
HCT-116 [6]
  growth at 0.1 µM: 100%
NCI/ADR-RES [7]
  growth at 0.1 µM: 98%
RXF 393 [8]
  growth at 0.1 µM: 83%
MDA-MB-468 [9]
  growth at 0.1 µM: 82%
K562
  growth at 1 µM: 74%
HCT-116 [10]
  growth at 1 µM: 86%
KM12 [11]
  growth at 1 µM: 93%
SNB-19 [12]
  growth at 1 µM: 75%
SK-OV-3 [13]
  growth at 1 µM: 107%
BT-549
  growth at 1 µM: 89%
COLO 205 [14]
  growth at 10 µM: -47%
MDA-MB-435
  growth at 10 µM: -29%
SN12C
  growth at 10 µM: -23%
UO-31
  growth at 10 µM: -96%
DU-145
  growth at 10 µM: -4%
MCF7 [15]
  growth at 10 µM: -62%
T47D
  growth at 10 µM: -34%
MDA-MB-468 [16]
  growth at 10 µM: -57%
RPMI-8226
  growth at 100 µM: -47%
SR
  growth at 100 µM: -17%
NCI-H460
  growth at 100 µM: -78%
KM12 [17]
  growth at 100 µM: -79%
SNB-19 [18]
  growth at 100 µM: -97%
Malme-3M [19]
  growth at 100 µM: -91%
NCI/ADR-RES [20]
  growth at 100 µM: -19%
RXF 393 [21]
  growth at 100 µM: -92%
